Test results: ChEMBL document CHEMBL5053556, “Design, Synthesis, and Biological Evaluation of a Novel Series of Teriflunomide Derivatives as Potent Human Dihydroorotate Dehydrogenase Inhibitors for Malignancy Treatment” (J Med Chem, 2021)

Assays:
[1] = AUC(0 to t) in Sprague-Dawley rat at 15 mg/kg, po measured after 48 hrs by LC-MS analysis; type: ADME, organism-based; parameters: dose 15 mg/kg, time 48 hrs, route po; details: in vivo
[2] = AUC(0 to t) in Sprague-Dawley rat at 5 mg/kg, iv measured after 48 hrs by LC-MS analysis; type: ADME, organism-based; parameters: time 48 hrs, dose 5 mg/kg, route iv; details: in vivo, 48 h
[3] = Acute toxicity in BALB/c mouse assessed as effect on liver at 400 mg/kg, po measured on day 14 by H and E staining based assay; type: organism-based; details: in vivo, 336 h, time 14 day
Raji [4] = assay: Antiproliferative activity against human Raji cells assessed as cell growth inhibition at 0.4 uM incubated for 96 hrs by MTT assay; type: functional; parameters: scale not given: the % may be the effect or the level left
Raji [5] = assay: Antiproliferative activity against human Raji cells assessed as cell growth inhibition at 0.4 uM preincubated with uridine for 24 hrs followed by compound addition and measured after 72 hrs by MTT assay; type: functional; parameters: scale not given: the % may be the effect or the level left
MV4-11 = assay: Antiproliferative activity against human MV4-11 cells assessed as cell growth inhibition incubated for 96 hrs by MTT assay; type: functional, cell-based; details: MV4-11, 96 h
[6] = Half life in Sprague-Dawley rat at 5 mg/kg, iv measured after 48 hrs by LC-MS analysis; type: ADME, organism-based; details: in vivo
Raji [7] = assay: Antiproliferative activity against human Raji cells assessed as cell growth inhibition at 0.2 uM preincubated with uridine for 24 hrs followed by compound addition and measured after 72 hrs by MTT assay; type: functional; parameters: scale not given: the % may be the effect or the level left
Mus musculus = assay: Toxicity in NOD-SCID mouse xenografted with human Raji cells assessed as change in ALT level at 40 mg/kg, po administered for 25 days; type: organism-based; details: in vivo, 600 h, time 25 day
Raji [8] = assay: Antiproliferative activity against human Raji cells assessed as cell growth inhibition incubated for 96 hrs by MTT assay; type: functional, cell-based
[9] = Acute toxicity in BALB/c mouse assessed as effect on lung at 400 mg/kg, po measured on day 14 by H and E staining based assay; type: organism-based; details: in vivo, 336 h, time 14 day
[10] = Acute toxicity in BALB/c mouse assessed as effect on kidney at 400 mg/kg, po measured on day 14 by H and E staining based assay; type: organism-based; details: in vivo, 336 h, time 14 day
[11] = Acute toxicity in BALB/c mouse assessed change in behavior at 400 mg/kg, po; type: organism-based; details: in vivo

In the case of `C/C(O)=C(\C#N)C(=O)Nc1cc(O[C@@H](C)C(F)(F)F)c(C(=O)Nc2c(F)cccc2F)cc1F`, the AUC(0-t) at 48 h [1] is reported as 29500 ng·h/mL, the AUCt [2] is reported as 31644 ng·h/mL and the Activity [3] is reported as “Non-Toxic”. It also gave an Activity (Raji [4]) of 64.5%, an Activity (Raji [5]) of 21.3% and an IC50 (MV4-11) of 20 nM. For the same compound, the half-life [6] was 7.1 h, the Activity (Raji [7]) was 17.1% and the Activity (Mus musculus) was “Non-Toxic”. For the same compound, the IC50 (Raji [8]) was 7.7 nM, the Activity [9] was “Non-Toxic” and the Activity [10] was “Non-Toxic”. For the same compound, the Activity [11] was “Non-Toxic”.
